The structures appear in SMILES notation.

This test addresses human lung tryptase. The experiment in a line: β-Tryptase In-Vitro Enzyme Assay. It counts as biochemical. The conditions noted are these: human lung tryptase 1 nM, substrate H-D-HHT-Ala-Arg-pNa 500 μM, pH 7.4, room temperature. The procedure: The β-tryptase assay was conducted with human lung tryptase (Cortex Biochem #CP3033) in an aqueous buffer (10 mM Tris, 10 mM Hepes, 150 mM NaCl, 0.1% PEG 8000, pH 7.4) using the chromogenic substrate H-D-HHT-Ala-Arg-pNa. […] Percent inhibition was calculated by comparing the initial reaction velocity of samples without inhibitor to those with inhibitor. The initial reaction velocities were analyzed using Microsoft Excel.
On to `NCc1ccc2c(c1)C1(CCN(C(=O)c3ccc(C#Cc4ccccc4)o3)CC1)CN2S(=O)(=O)c1ccc(C(=O)O)cc1` [Cpd 324, 1-(5-phenylethynyl-furan-2-yl)carbonyl-1′-(4-carboxy-phenyl)sulfonyl-5′-aminomethyl-spiro[piperidine-4,3′-(2H)-indole]], for which the midpoint of inhibition, the IC50, lay at 200 nM.
Take `NCc1ccc2c(c1)C1(CCN(C(=O)c3ccc(Oc4ccccc4)cc3)CC1)CO2` [Cpd 62, 1-(4-phenoxy-phenyl)carbonyl-5′-aminomethyl-spiro[piperidine-4,3′-(2H)-benzo[b]furan]]: the 50% inhibitory concentration (IC50) (commonly the point on the concentration scale where inhibition reaches its midpoint) was 800 nM.
To `NCc1ccc2c(c1)C1(CCN(C(=O)c3ccc4ncsc4c3)CC1)CO2` [Cpd 16, 1-benzothiazol-6-ylcarbonyl-5′-aminomethyl-spiro[piperidine-4,3′-(2H)-benzo[b]furan]] belongs 430 nM; to `NCc1ccc2c(c1)C1(CCN(C(=O)c3cccc(Cl)c3)CC1)CO2` [Cpd 39, 1-(3-chloro-phenyl)carbonyl-5′-aminomethyl-spiro[piperidine-4,3′-(2H)-benzo[b]furan]], 3700 nM; to `COc1ccc(C(=O)N2CCC3(CC2)COc2ccc(CN)cc23)cc1OC` [Cpd 40, 1-(3,4-dimethoxy-phenyl)carbonyl-5′-aminomethyl-spiro[piperidine-4,3′-(2H)-benzo[b]furan]], 250 nM.
In the case of `NCc1ccc2c(c1)C1(CCN(C(=O)c3cccc(Br)c3)CC1)CO2` [Cpd 29, 1-(3-bromo-phenyl)carbonyl-5′-aminomethyl-spiro[piperidine-4,3′-(2H)-benzo[b]furan]], 130 nM corresponded to half-maximal inhibition (IC50).
With `CSc1sc(C(=O)N2CCC3(CC2)COc2ccc(CN)cc23)c2c1C=CCC2` [Cpd 219, 1-(3-methylthio-7-hydro-6H-benzo[c]thien-1-yl)carbonyl-5′-aminomethyl-spiro[piperidine-4,3′-(2H)-benzo[b]furan]], the IC50 was determined as 2.9 nM. Compared with the last compound, the IC50 is about 45-fold lower.
For the compound `COc1ccc(-c2c(C(=O)N3CCC4(CC3)COc3ccc(CN)cc34)sc(SC)c2C#N)cc1` [Cpd 201, 1-[3-(4-methoxy-phenyl)-4-cyano-5-methylthio-thien-2-yl]carbonyl-5′-aminomethyl-spiro[piperidine-4,3′-(2H)-benzo[b]furan]], the IC50 was 45 nM. This IC50 is about 16-fold higher than that of the compound before.
Regarding `NCc1ccc2c(c1)C1(CCN(C(=O)C=C3OC(=O)c4ccccc43)CC1)CO2` [Cpd 215, 1-[1-oxo-2-(3-oxo-3H-isobenzofuran-1-ylidene)-ethyl]-5′-aminomethyl-spiro[piperidine-4,3′-(2H)-benzo[b]furan]], inhibition was half-maximal at 760 nM (IC50).
In turn, `NCc1ccc2c(c1)C1(CCN(C(=O)c3ccc(-c4ccccc4)o3)CC1)CO2` [Cpd 130, 1-(5-phenyl-furan-2-yl)carbonyl-5′-aminomethyl-spiro[piperidine-4,3′-(2H)-benzo[b]furan]] showed an IC50 of 28 nM.
The same measure for `NCc1ccc2c(c1)C1(CCN(C(=O)c3ccc(C#Cc4cc(F)cc(F)c4)o3)CC1)CO2` [Cpd 176, 1-[5-(3,5-difluoro-phenylethynyl)-furan-2-yl]carbonyl-5′-aminomethyl-spiro[piperidine-4,3′-(2H)-benzo[b]furan]]: 41 nM; for `COC(=O)c1cccc(C(=O)N2CC3(CCN(C(=O)c4ccc(C#Cc5ccccc5)o4)CC3)c3cc(CN)ccc32)c1` [Cpd 328, 1-(5-phenylethynyl-furan-2-yl)carbonyl-1′-(3-methoxycarbonyl-phenyl)carbonyl-5′-aminomethyl-spiro[piperidine-4,3′-(2H)-indole]]: 290 nM.
Turning to `NCc1ccc2c(c1)C1(CCN(C(=O)/C=C/c3ccccc3Br)CC1)CO2` [Cpd 199, (E)-1-(2-bromo-phenylethenyl)carbonyl-5′-aminomethyl-spiro[piperidine-4,3′-(2H)-benzo[b]furan]], the midpoint of inhibition, the IC50, lay at 180 nM. This IC50 is about 1.6-fold lower than that of the compound before.
In the case of `NCc1ccc2c(c1)C1(CCN(C(=O)C#Cc3ccccc3)CC1)CO2` [Cpd 296, 1-phenylethynylcarbonyl-5′-aminomethyl-spiro[piperidine-4,3′-(2H)-benzo[b]furan]], 210 nM corresponded to half-maximal inhibition (IC50).

For the origin of these results see US8158792B2, “Spiropiperidines for use as tryptase inhibitors” (Janssen Pharmaceutica N.V., priority 2007, dated 2012).
